# Laboratory results taken from article PMC12663261 (Nature Communications, 2025).
# Experiments:
# [1] = target: T1, hcis-PT (DHDDS / NgBR complex) (Homo sapiens, UniProt Q86SQ9+Q96E22); assay: HDX-MS, ligand-bound versus apo; assay type: binding; conditions: 6-molar excess ligand, 5 mM MgCl2, pD 7.5, 4 °C; active site
# T1 sequence (Q86SQ9 1-333): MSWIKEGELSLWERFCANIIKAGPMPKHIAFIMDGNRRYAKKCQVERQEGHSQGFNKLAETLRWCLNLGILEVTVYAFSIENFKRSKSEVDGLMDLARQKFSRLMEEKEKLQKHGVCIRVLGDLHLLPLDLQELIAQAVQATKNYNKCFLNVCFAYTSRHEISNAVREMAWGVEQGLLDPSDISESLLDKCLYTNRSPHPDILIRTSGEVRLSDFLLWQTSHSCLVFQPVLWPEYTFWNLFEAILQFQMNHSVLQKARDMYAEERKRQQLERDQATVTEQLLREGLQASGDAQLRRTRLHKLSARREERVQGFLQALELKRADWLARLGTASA
# T1 sequence (Q96E22 73-293): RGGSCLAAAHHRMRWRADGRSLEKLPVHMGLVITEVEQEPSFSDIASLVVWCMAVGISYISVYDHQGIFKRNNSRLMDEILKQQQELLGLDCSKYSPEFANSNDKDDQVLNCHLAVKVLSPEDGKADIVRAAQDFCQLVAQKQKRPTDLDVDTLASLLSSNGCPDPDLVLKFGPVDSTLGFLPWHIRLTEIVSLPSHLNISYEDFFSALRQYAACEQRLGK
# [2] = target: T1, hcis-PT (DHDDS / NgBR complex); assay: fluorescence increase upon chain elongation; assay type: biochemical; conditions: 5 uM with 100 uM IPP, 0.2 uM enzyme, 0.5 mM MgCl2, pH 7.5
SMILES,"HDX-MS, ligand-bound versus apo [1]","fluorescence increase upon chain elongation (Ex 352 nm, Em 425 nm) [2]"
CC(C)=CCC/C(C)=C/CC/C(C)=C/COP(=O)(O)OP(=O)(O)O [FPP],binding of either FPP or GGPP resulted in decreased HDX throughout the active site,
CC(C)=CCC/C(C)=C/CC/C(C)=C/CC/C(C)=C/COP(=O)(O)OP(=O)(O)O [GGPP],binding of either FPP or GGPP resulted in decreased HDX throughout the active site,
"CNc1ccccc1C(=O)OC/C(C)=C/CC/C(C)=C/COP(=O)(O)OP(=O)(O)O [MANT-O-GPP, (2E,6E)-8-O-(N-methyl-2-aminobenzoyl)-3,7-dimethyl-2,6-octandien-1-pyrophosphate]",,MANT-O-GPP exhibits an increase in fluorescence upon chain elongation by hcis-PT
